Patent US8759073B2, “Method for effectively controlling harmful organisms in large-scale culture of microalgae” (ENN Science & Technology Development Co., Ltd., priority 2009, dated 2014)
“Also recorded” adds a separate entry of the source.

How the values were obtained:
diatom = test: Control of diatom contamination in culture of Chlorococcum sp., microscope examination; assay type: cell-based; conditions: Example 8
Excerpt: Chlorococcum sp. […] Modified BG11 medium (see Table 3) was used. […] Then air was sufficiently aerated.

Nannochloris sp. = test: Growth of cultured algae after treatment, 1.5 m^3 glass plate reactor; assay type: cell-based; conditions: Example 9; CO2 periodically at an interval of 2 hours, 2 days
Description: Nannochloris sp. […] Modified BG11 medium (see Table 4) was used. […] Then CO2 was aerated periodically at an interval of 2 hours (pH ranged within 5.0-8.5).

Oxyrrhis = test: Control of Oxyrrhis contamination in microalgae culture, microscope examination; assay type: cell-based, Oxyrrhis sp
Excerpt: If the contaminated alga liquid is identified as acid tolerant contamination, pH value is raised up with alkalis in the culture system of the microalgae and maintained for a period of time. The pH value cannot be higher than the maximal tolerable pH of the microalgae. […] In an embodiment, said alkali can be ammonia. In an embodiment, said alkali can be NaOH. In an embodiment, said alkali can be 1M NaOH. Depending on different pH requirements and different culture systems, alkalis with different concentrations can be used according to the agitation condition, as long as the transient pH is not too high to be harmful to microalgae, and dilution of the cell concentration in the culture system (caused by adding too much alkali solution) should also be avoided. […] In an embodiment, the pH of the culture system is adjusted to 11.5-12.0 with 1M NaOH or 1M ammonia. In an embodiment, the pH of the culture system is adjusted to 11.0-11.8 or 8.0-11.0 with 1M NaOH or 1M ammonia. In an embodiment, the pH of the culture system is adjusted to 8.0-11.0, 11.5-12.0 or 11.0-11.8 and maintained for 3 hours.
Microscope examination is always used as one of the bases for determining the growth status in the process of microalgae culture.
Chlorella sp. (purchased from FACHB collection, Wuhan Aquatic Research Institure, Chinses Academy of Sciences) was cultured in a 320 L bubbling reactor (manufactured by Longfang Jiangchuan plexiglass Co. Ltd., φ300 mm×2 m) out-of-doors under a sunlight film. The culture condition included: a temperature of about 25 °C, a humidity of 60%-80%, and an illumination of 8000-20000 lux. Modified SM (see Table 2) (pH 7.0-9.0 for the normal culture) was used. […] Then, CO2 was aerated to adjust pH to be 7.0-8.0.
Chlorella sp. (obtained from Jinan University) was cultured in a 320 L bubbling reactor (manufactured by Longfang Jiangchuan plexiglass Co. Ltd., φ300 mm×2 m) out-of-doors under a sunlight film (with a temperature of about 25 °C, a humidity of 60%-80%, and an illumination of 8000-20000 lux). Modified SM medium (see Table 2) was used. When Amoeba, Oxyrrhis and ciliate contaminations were observed is with an oil immersion lens (Nikon fluorescent invert microscope Ti series), pH was adjusted to 11.0-11.8 with 1M NaOH. […] Then, CO2 was aerated continuously to saturation (pH 5.6). […] Then air was sufficiently aerated.
Chlorococcum sp. (obtained from Qingdao Marine Institute) was cultured in a 60 L glass plate reactor (manufactured by Longfang Jiangchuan plexiglass Co. Ltd., OP=10 cm) under a sunlight film (with a temperature of about 25 °C, a humidity of 60%-80%, and an illumination of 8000-20000 lux) (pH 8.0-9.0 for the normal culture). Modified BG11 medium (see Table 3) was used. […] Then CO2 was aerated and pH was adjusted to 7.0-8.0.
Chlorococcum sp. (obtained from Qingdao Marine Institute) was cultured in a 60 L glass plate reactor (manufactured by Longfang Jiangchuan plexiglass Co. Ltd., OP=10 cm) under a sunlight film (with a temperature of about 25 °C, a humidity of 60%-80%, and an illumination of 8000-20000 lux) (pH 8.0-9.0 for the normal culture). Modified BG11 medium (see Table 3) was used. […] One hour later, CO2 was aerated to saturation (about pH 5.6) for 24 hour continuously. […] Then air was sufficiently aerated.

## O=C=O [CO2, carbon dioxide]
diatom; CO2 aerated continuously to saturation (about pH 5.6), thirty-six hours
  diatom, result of microscope examination: some diatom lost intracellular pigment and only empty shells were left
diatom; saturated CO2 36 hours, then air sufficiently aerated
  residual contaminating diatom after air aeration: reduced activity, grew slowly, and would not become dominant algae; also recorded: grew slowly
Nannochloris sp.
  growth rate of the algae: rarely affected; also recorded: not affected
Oxyrrhis; Example 4, after 1M NaOH pH 11.0-11.8 1 h, CO2 to saturation (pH 5.6) 24 hours
  Oxyrrhis, result of microscope examination: no Amoeba or Oxyrrhis
Oxyrrhis; Example 7, after 1M NaOH pH 11.5-12.0 1 h, CO2 to saturation (about pH 5.6) 24 hour
  Oxyrrhis, result of microscope examination: no Amoeba or Oxyrrhis
Oxyrrhis; Example 10, after 1M NaOH pH 11.5-12.0 1 h, CO2 to saturation (about pH 5.8) 23 hour
  Oxyrrhis, result of microscope examination: no Amoeba or Oxyrrhis
Oxyrrhis; Example 12, after 1M ammonia pH 9.0 1 h, CO2 to saturation (pH 5.6) 24 hours
  Oxyrrhis, result of microscope examination: no Amoeba or Oxyrrhis
Oxyrrhis; Example 14, after 1M ammonia pH 9.0 1 h, CO2 to saturation (about pH 5.6) 24 hour
  Oxyrrhis, result of microscope examination: no Amoeba or Oxyrrhis
Oxyrrhis; Example 15, after 1M ammonia pH 10.0 1 h, CO2 to saturation (about pH 5.8) 23 hour
  Oxyrrhis, result of microscope examination: no Amoeba or Oxyrrhis
